Test results published in patent US8329678B1, “Antiinflammatory compound” (priority 2011, dated 2012).

Legend:
[1] = system: human lung cancer cell line (NCI-H460); experiment: Sulforhodamine B (SRB) growth inhibition assay; format: cell-based; conditions: for TGI (μM), could not be determined: NCI-H460, maximum dose 100 μM
Method: The sulforhodamine B (SRB) protein-staining assay was employed for measurement of in vitro growth inhibition and cytotoxicity (21) The appropriate cell density (cells/well) of NCI-H460 cells (1×10^4) was added in 96-well plates. The cell density used was dependent on the doubling time of the cell line leading to the formation of monolayer. After 24 h incubation, different doses of Compounds 1-3 were added and incubated for further 48 h. This was followed by fixation of cells with ice-cold trichloroacetic acid (50 μl, 50%) at room temperature for 30 min. The plates were carefully washed five times with distilled water, and left for overnight drying in air. Sulforhodamine B dye (100 μl, 0.4% in 1% acetic acid) was introduced in each well and after 30 min residual dye was removed using acetic acid (1%) and air-dried overnight. The bound SRB dye was solubilized in Tris-base solution (100 μl, 10 mM) with gentle shaking on a plate-shaker for 5 min prior to optical density (OD) measurements at 545 nm in a plate reader. Drug concentrations causing growth inhibition (GI50) of 50% cells were calculated from dose response curves and total growth inhibition of Compound 2 was also evaluated.

[2] = system: PHA-activated T-cell proliferation; experiment: PHA-activated T-cell proliferation assay (3H-thymidine incorporation); format: cell-based, human
Method: The T-cell proliferation assay was performed as described by Nielson et al. (19). In this assay, isolated lymphocytes were stimulated by adding the phytohemagglutinin (PHA) in culture. The rate of proliferation and survival was measured by radiolabelled thymidine incorporation method. The lymphocytes were isolated as described by Boyum (20). A 50 μL of cell suspension (10^6/mL) was added to each well of a 96-well round bottom tissue culture plate. 50 μL of PHA was added in each well from the working solution (20 μg/mL) to have final concentration 5 μg/mL. The final volume was adjusted to 200 μL in each well by adding complete RPMI media. The plates were incubated at 37° C. for 72 hours (90% humidity, 5% CO2/air). Methyl-^3H thymidine (Amersham Pharmacia Biotech) 0.5 μCi was added in each well and incubated for further 18 hours. Cells were harvested on a filter mat (Type G-7) using cell harvester (INOTECH IH-280, Switzerland) and the radioactivity (CPM) was measured using a β-scintillation counter (LS 6500, Beckman Coulter, USA). (FIG. 2A)

[3] = system: isolated polymorphoneutrophils (PMNs); experiment: Luminol-enhanced chemiluminescence oxidative burst assay, isolated PMNs; format: cell-based, human
From the text: (§1) Heparinized blood was obtained by vein puncture aseptically from healthy volunteers (25-38 years age). The buffy coat containing PMNs was collected by dextran sedimentation and the cells were isolated after the LSM density gradient centrifugation from the tube base. Cells were washed twice and suspended in Hank's Balance Salt Solution (Ca^2+ and Mg^2+ free) (HBSS^−−), pH 7.4. Neutrophils were purified from RBCs contamination using hypotonic solution. Cells were adjusted to their required concentration using Hank's Balance Salt Solution containing Ca^2+ and Mg^2+ (HBSS++)
(§2) Luminol-enhanced chemiluminescence assay was performed as described by Helfand et al. (17), and Haklar et al. (18) with some modifications. Briefly, 25 μL diluted whole blood (1:200 dilution in sterile HBSS^++) or 25 μL of PMNs (1×10^6) cells were incubated with 25 μL of serially diluted compounds with concentration ranges between 3.2-50 mg/mL. Tests were performed in white 96-well plates, which were incubated at 37° C. for 30 minutes in the thermostated chamber of the luminometer. Opsonized zymosan-A, 25 μL, followed by 25 μL luminol (7×10^−5M) along with HBSS^++ was added to each well to obtain a 100 μL volume/well. […] Chemiluminescence peaks were recorded with the Luminometer. Results were monitored as chemiluminescence relative light units (RLU) with peak and total integral values.

whole blood phagocytes = experiment: Luminol-enhanced chemiluminescence oxidative burst assay, whole blood; format: cell-based, human
From the text: as §1, §2

[4] = system: IL-2 production from peripheral blood mononuclear cells; experiment: IL-2 cytokine production by PHA-activated PBMC (ELISA); format: cell-based, human
Method: IL-2 cytokine was produce from peripheral blood mononuclear cells (PBMC). IL-2 cytokine production by PHA activated cells in the presence or absence of test compounds was studied by ELISA using the human cytokine kit (Diaclone, Besancon Cedex France). Briefly, freshly prepared mononuclear cells (10^5/well) were cultured in 96-well microtiter flat bottom plate in the presence or absence of 5 μg/mL PHA. Four different concentrations (10.33-331.13 μM/mL) of compounds, along with PHA, were used in this assay. The culture plate was incubated at 37° C. for 18 h. Then the supernatant was collected and analyzed for IL-2 cytokine production following kit manufacturer instructions.

Row | SMILES | anticancer activity against NCI-H460 [1] | growth inhibition of cancer cells at 100 μM ([1]; 100 μM) | TGI (μM), could not be determined [1] | effect on T-cell proliferation [2] | effect on ROS production, isolated neutrophils [3] | effect on ROS production, whole blood phagocytes (whole blood phagocytes) | effect on IL-2 production [4]
1 | C[C@]12CCC(=O)C[C@@H]1CC[C@@H]1[C@@H]2CC[C@@]2(C)[C@H]1CC[C@]2(C)O [Compound 3, 17β-hydroxy-17α-methyl-5α-androstan-3-one] | non-active | not able to inhibit considerable growth | ND (Values could not be determined indicates <50% inhibition of cell growth at maximum dose (100 μM) tested.) | moderate inhibitory activity | did not result in any significant effect | did not result in any significant effect | moderate inhibitory activity
2 | C[C@]12C=CC(=O)C[C@@H]1CC[C@@H]1[C@@H]2CC[C@@]2(C)[C@H]1CC[C@]2(C)O [Compound 2, 17β-hydroxy-17α-methyl-5α-androst-1-en-3-one] | showed anticancer activity |  |  |  | did not result in any significant effect | did not result in any significant effect | 
3 | C[C@]12C=CC(=O)C=C1CC[C@@H]1[C@@H]2CC[C@@]2(C)[C@H]1CC[C@]2(C)O [Compound 1, dianabol, reference compound] | showed anticancer activity |  | ND (Values could not be determined indicates <50% inhibition of cell growth at maximum dose (100 μM) tested.) | did not show any significant effect |  |  | did not show any significant effect
